Results published in patent publication US8207144B2, “Sodium salt of disaccharide compound, production method and use of same” (Eisai R & D Management Co., Ltd., priority 2006, dated 2012).

Test: Storage stability test (formation of impurities A, B and C by HPLC)
Assay type: physicochemical
Conditions: HPLC area percent
Method: Consequently, formation rates (converted to monthly rates) were calculated for each of the three types of decomposition products (impurities A, B and C) using the area percent.

[1] = storage at 25° C. in screw-cap glass bottle, day 0
[2] = storage at 25° C., day 1.0, listed as 3.67 Na Salt
[3] = storage at 25° C., day 1.9, listed as 3.67 Na Salt
[4] = storage at 25° C., day 4.5, listed as 3.67 Na Salt
[5] = storage at 25° C., day 1.0, listed as 3.93 Na Salt
[6] = storage at 25° C., day 1.9, listed as 3.93 Na Salt
[7] = storage at 25° C., day 4.5, listed as 3.93 Na Salt

CCCCCC/C=C\CCCCCCCCCC(=O)NC1C(OCC2OC(OP(=O)([O-])[O-])C(NC(=O)CC(=O)CCCCCCCCCCC)C(OCCCCCCCCCC)C2O)OC(COC)C(OP(=O)([O-])[O-])C1OCCC(CCCCCCC)OC.[Na+].[Na+].[Na+].[Na+] (stereo not drawn) [Comparative Example 1, reference compound]
Impurity A [1]: 0.00%
Impurity B (storage at 25° C., day 0): 0.18%
Impurity C (storage at 25° C., day 0): 0.00%
Impurity A (storage at 25° C., day 1.0): 0.06%
Impurity B (storage at 25° C., day 1.0): 0.36%
Impurity C (storage at 25° C., day 1.0): 0.00%
Impurity A (storage at 25° C., day 1.9): 0.08%
Impurity B (storage at 25° C., day 1.9): 0.48%
Impurity C (storage at 25° C., day 1.9): 0.00%
Impurity A (storage at 25° C., day 4.5): 0.12%
Impurity B (storage at 25° C., day 4.5): 0.67%
Impurity C (storage at 25° C., day 4.5): 0.00%
Impurity C (storage at 25° C., day 8.8): 0.00%
Impurity C (storage at 25° C., day 29.5): 0.03%

CCCCCC/C=C\CCCCCCCCCC(=O)N[C@H]1[C@H](OC[C@H]2O[C@H](OP(=O)(O)O)[C@H](NC(=O)CC(=O)CCCCCCCCCCC)[C@@H](OCCCCCCCCCC)[C@@H]2O)O[C@H](COC)[C@@H](OP(=O)(O)O)[C@@H]1OCC[C@@H](CCCCCCC)OC [Example 2]
Impurity A [1]: 0.00%
Impurity B (storage at 25° C., day 0): 0.00%
Impurity C (storage at 25° C., day 0): 0.00%
Impurity A (storage at 25° C., day 18): 0.00%
Impurity B (storage at 25° C., day 18): 0.00%
Impurity C (storage at 25° C., day 18): 0.17%

CCCCCC/C=C\CCCCCCCCCC(=O)N[C@H]1[C@H](OC[C@H]2O[C@H](OP(=O)([O-])[O-])[C@H](NC(=O)CC(=O)CCCCCCCCCCC)[C@@H](OCCCCCCCCCC)[C@@H]2O)O[C@H](COC)[C@@H](OP(=O)([O-])[O-])[C@@H]1OCC[C@@H](CCCCCCC)OC.[Na+].[Na+].[Na+].[Na+] [Example 3]
Impurity A [1]: 0.00%
Impurity C (storage at 25° C., day 0): 0.00%
Impurity B (storage at 25° C., day 0, listed as 3.67 Na Salt): 0.08%
Impurity C (storage at 25° C., day 1.0): 0.00%
Impurity A [2]: 0.00%
Impurity B [2]: 0.12%
Impurity C (storage at 25° C., day 1.9): 0.00%
Impurity A [3]: 0.01%
Impurity B [3]: 0.09%
Impurity C (storage at 25° C., day 4.5): 0.01%
Impurity A [4]: 0.01%
Impurity B [4]: 0.13%
Impurity C (storage at 25° C., day 8.8): 0.01%
Impurity C (storage at 25° C., day 29.5, listed as 3.67 Na Salt): 0.07%

CCCCCC/C=C\CCCCCCCCCC(=O)N[C@H]1[C@H](OC[C@H]2O[C@H](OP(=O)([O-])[O-])[C@H](NC(=O)CC(=O)CCCCCCCCCCC)[C@@H](OCCCCCCCCCC)[C@@H]2O)O[C@H](COC)[C@@H](OP(=O)([O-])[O-])[C@@H]1OCC[C@@H](CCCCCCC)OC.[Na+].[Na+].[Na+].[Na+] [Example 4]
Impurity A [1]: 0.00%
Impurity C (storage at 25° C., day 0): 0.00%
Impurity B (storage at 25° C., day 0, listed as 3.93 Na Salt): 0.14%
Impurity C (storage at 25° C., day 1.0): 0.00%
Impurity A [5]: 0.03%
Impurity B [5]: 0.26%
Impurity C (storage at 25° C., day 1.9): 0.00%
Impurity A [6]: 0.04%
Impurity B [6]: 0.29%
Impurity C (storage at 25° C., day 4.5): 0.01%
Impurity A [7]: 0.06%
Impurity B [7]: 0.38%
Impurity C (storage at 25° C., day 8.8): 0.01%
Impurity C (storage at 25° C., day 29.5, listed as 3.93 Na Salt): 0.06%
